Source: paper PMC9109178 (Science (New York, N.Y.), 2021)

What was measured:
A. baumannii MsbA [1] = target: T1, A. baumannii MsbA (Acinetobacter baumannii, UniProt A0A0B9X4I2); conditions: POPG nanodiscs, no TBT1
T1 sequence (A0A0B9X4I2 1-575): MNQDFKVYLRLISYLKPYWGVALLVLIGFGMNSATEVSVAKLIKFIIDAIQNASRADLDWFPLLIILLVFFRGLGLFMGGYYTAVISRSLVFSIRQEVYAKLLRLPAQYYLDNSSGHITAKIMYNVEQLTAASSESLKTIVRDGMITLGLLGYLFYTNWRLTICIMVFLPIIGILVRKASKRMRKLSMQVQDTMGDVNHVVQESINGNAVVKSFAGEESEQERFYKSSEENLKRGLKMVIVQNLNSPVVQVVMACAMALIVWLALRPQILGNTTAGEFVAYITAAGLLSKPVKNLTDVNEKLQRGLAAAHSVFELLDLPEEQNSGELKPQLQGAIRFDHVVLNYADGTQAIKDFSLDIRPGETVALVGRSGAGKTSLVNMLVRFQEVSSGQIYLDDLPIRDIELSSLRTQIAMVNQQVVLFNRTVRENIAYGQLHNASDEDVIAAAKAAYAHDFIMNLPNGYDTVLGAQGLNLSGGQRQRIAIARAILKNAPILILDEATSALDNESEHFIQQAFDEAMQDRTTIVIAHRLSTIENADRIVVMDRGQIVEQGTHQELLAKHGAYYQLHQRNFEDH

A. baumannii MsbA [2] = target: T1, A. baumannii MsbA; test: ATPase activity assay; format: biochemical; conditions: stimulation of ATPase activity; allosteric, central substrate (LPS) binding site

Row | Structure (SMILES) | ATPase activity, Michaelis-Menten kinetics (A. baumannii MsbA [1]) | EC50 (A. baumannii MsbA [2]) [µM]
1 | Nc1ncnc2c1ncn2[C@@H]1O[C@H](COP(=O)(O)OP(=O)(O)OP(=O)(O)O)[C@@H](O)[C@H]1O [ATP] | ATPase activity of A. baumannii MsbA in nanodiscs, measured at varying ATP and TBT1 concentrations | –
2 | O=C(Nc1sc2c(c1C(=O)O)CCCC2)c1ccc(Cl)cc1 [TBT1] | – | ~13
